# Measured values: patent US20080085939A1, “Use Of Sphingolipids For Prevention And Treatment Of Atherosclerosis” (priority 2004, published 2008)
# Legend:
# Assay type in all cases: cell-based
# [1] = tested on: LPS-induced TNFα release by macrophage U937 cells; assay: Effect of sphingolipids on LPS-induced TNFα release by macrophage U937 cells; settings: differentiated U937 cells; 1 μg/ml or 10 μg/ml sphingolipid for 30 min, then LPS 1 μg/ml for 4 hours; FIG. 1
# Experimental: Undifferentiated U937 cells were grown at 37° C. at 5% (v/v) CO2 and 100% relative humidity in medium consisting of RPMI 1640, and supplemented with 10% Fetal Calf Serum (FCS), 2 mM L-Glutamine, 50 μg/ml Gentamycin and 0.4% Fungizone. The cells were passaged every three days. Finally the cells were transferred to 96-wells microtiter plates. Differentiation was induced by addition of 10 ng/ml PMA (Phorbol 12-myristate 13-acetate). After 24 hours the medium was changed and refreshed every day and the differentiated macrophages were grown for another 3 days at 37° C. The above described differentiated U937 cells were treated for 30 min with 1 μg/ml or 10 μg/ml sphingolipid (1 mg/mL in ethanol). Then the cells were stimulated with LPS (1 μg/ml) for a period of 4 hours. The TNFα release was measured with the TNF-α cytoset™ from Biosource International, Camarillo, Calif., USA.
# [2] = tested on: NFAT-mediated signal transduction pathway in Jurkat cells (T-cells); assay: PMA/ionomycin-induced stimulation of Jurkat cells, NFAT-luciferase reporter; settings: 10 μg/mL sphingolipid; Jurkat pNFAT-luc; PMA 50 ng/ml and ionomycin 1 μg/ml, 6 hours; FIG. 2
# Experimental: (§1) Jurkat cells (T-cells) stably transfected with pNFAT-luc (Clontech, BD Bioscience, Becton, Dickinson and Company, Franklin Lakes, N.J. USA) in which the hygromycin resistance gene was cloned were used. The cells produce the enzyme luciferase under control of the NFAT (nuclear Factor of Activated T cells) promoter. The NFAT-mediated pathways are stimulated in Jurkat cells by PMA and ionomycin. Cells were grown at 37° C. at 5% (v/v) CO2 and 100% relative humidity in medium consisting of RPMI 1640, 10 mM HEPES (N-[2-hydroxyethyl]piperazine-N′-[2-ethanesulfonic acid), 10% FCS, 2 mM L-Glutamine and 1 mM Sodium Pyruvate. The medium was changed every 3 days. Finally the cells were transferred to 96-wells plates.
# A cell suspension of 5×10^5 cells/ml in medium without phenol red was transferred to 96 well microtiter plates (200 μL/well). In triplicate sphingolipids were added (1 or 10 μg/mL). After 30 min PMA (50 ng/ml) and ionomycin (1 μg/ml) was added and the cells were incubated during 6 hours. Then 60 μl cell suspension was mixed with 60 μl steady glo reagent (Promega). Luminescence was measured in a Wallac 1450 microbeta liquid scintillation counter.
# Jurkat cells (T-cells) = assay: Cell proliferation/viability of Jurkat cells, Alamar Blue test; settings: exposure to sphingolipids
# Experimental: as §1
# Because sphingolipids can be cytotoxic to cells, the viability of the cells after exposure to the sphingolipids was checked with the Alamar Blue™ (Biosource) test. Almar blue™ (20 μL) and sphingolipids were added simultaneously. The Fluorescence (excitation at 540 nm and emission at 570 nm) was measured in a Wallac 1420 Victor^2 multilabel counter (Perkin Elmer Wellesley, Mass., USA).
SMILES,release of TNFα by LPS-stimulated macrophages [1],PMA/ionomycin-induced activation of the NFAT-mediated signal transduction pathway (luciferase activity) [2],cell viability of Jurkat cells (Alamar Blue fluorescence) (Jurkat cells (T-cells))
CCCCCCCCCCCCCCC[C@@H](O)[C@@H](N)CO [sphinganine],strongly reduced,completely suppressed,No differences
CCCCCCCCCCCCC/C=C/[C@@H](O)[C@@H](N)CO [sphingosine],strongly reduced,completely suppressed,No differences
CCCCCCCCCCCCCC[C@@H](O)[C@@H](O)[C@@H](N)CO [phytosphingosine],strongly reduced,completely suppressed,No differences
